The record followed here is ChEMBL document CHEMBL1141668, “Synthesis and biological activity of imidazopyridine anticoccidial agents: Part II” (Eur J Med Chem, 2008).

For the first assay, the system named is Eimeria mitis. The experiment in a line: Anticoccidial activity against Eimeria mitis in chickens assessed as reduction of oocysts at 6.25 ppm measured after 8 days by ExMAC assay relative to untreated control. In kind it is functional. Further details: scale not given: the % may be the effect or the level left.
As for `CN(C)C(C)(C)c1ccn2c(-c3ccnc(N)n3)c(-c3ccc(F)cc3)nc2c1`, the Activity was 80%.

A further assay relates to Eimeria acervulina. The experiment in a line: Anticoccidial activity against Eimeria acervulina in chickens assessed as reduction of oocysts at 8 ppm measured after 8 days by ExMAC assay relative to untreated control. Further details: scale not given: the % may be the effect or the level left. Type of assay: functional.
As to `CN(C)C(C)(C)c1ccn2c(-c3ccnc(N)n3)c(-c3ccc(F)cc3)nc2c1`, the Activity turned out to be 100%.

Regarding `CCC(c1ccn2c(-c3ccnc(N)n3)c(-c3ccc(F)cc3)nc2c1)N(C)C` (stereo not drawn), the Activity is 80%.

A further assay concerns Eimeria acervulina. The experiment in a line: Anticoccidial activity against Eimeria acervulina in chickens assessed as reduction of oocysts at 6.25 ppm measured after 8 days by ExMAC assay relative to untreated control. Type of assay: functional. The arrangement: scale not given: the % may be the effect or the level left.
With `CN(C)C(C)(C)c1ccn2c(-c3ccnc(N)n3)c(-c3ccc(F)cc3)nc2c1`, the Activity is given as 100%.

The subject of the next assay is Eimeria maxima. The experiment in a line: Anticoccidial activity against Eimeria maxima in chickens assessed as reduction of oocysts at 4 ppm measured after 8 days by ExMAC assay relative to untreated control. In kind it is functional. Further details: scale not given: the % may be the effect or the level left.
As for `CC(c1ccn2c(-c3ccnc(N)n3)c(-c3ccc(F)cc3)nc2c1)N(C)C` (single isomer, unassigned; enantiomer A), the Activity is less than 50%.

The next assay relates to Eimeria mitis. The experiment in a line: Anticoccidial activity against Eimeria mitis in chickens assessed as reduction of oocysts at 12.5 ppm measured after 8 days by ExMAC assay relative to untreated control. In kind it is functional. Further details: scale not given: the % may be the effect or the level left.
As to `CCC(c1ccn2c(-c3ccnc(N)n3)c(-c3ccc(F)cc3)nc2c1)N(C)C` (stereo not drawn), the Activity turned out to be 100%.

In the next assay the test system is Eimeria mitis. The experiment in a line: Anticoccidial activity against Eimeria mitis in chickens assessed as reduction of oocysts at 8 ppm measured after 8 days by ExMAC assay relative to untreated control. In kind it is functional. The arrangement: scale not given: the % may be the effect or the level left.
For `CN(C)C(C)(C)c1ccn2c(-c3ccnc(N)n3)c(-c3ccc(F)cc3)nc2c1`, the Activity is reported as less than 50%.

Turning to `CCC(c1ccn2c(-c3ccnc(N)n3)c(-c3ccc(F)cc3)nc2c1)N(C)C` (stereo not drawn), the Activity is given as less than 50%.

Another assay concerns Eimeria tenella. The experiment in a line: Anticoccidial activity against Eimeria tenella in chickens assessed as reduction of oocysts at 6.25 ppm measured after 8 days by ExMAC assay relative to untreated control. Further details: scale not given: the % may be the effect or the level left. Type of assay: functional.
Regarding `CN(C)C(C)(C)c1ccn2c(-c3ccnc(N)n3)c(-c3ccc(F)cc3)nc2c1`, the Activity is listed as 100%.

The next assay relates to Eimeria maxima. The experiment in a line: Anticoccidial activity against Eimeria maxima in chickens assessed as reduction of oocysts at 12.5 ppm measured after 8 days by ExMAC assay relative to untreated control. In kind it is functional. Further details: scale not given: the % may be the effect or the level left.
In the case of `CCC(c1ccn2c(-c3ccnc(N)n3)c(-c3ccc(F)cc3)nc2c1)N(C)C` (stereo not drawn), the Activity is 100%.

The test system of a further assay is Eimeria tenella. The experiment in a line: Anticoccidial activity against Eimeria tenella in chickens assessed as reduction of oocysts at 8 ppm measured after 8 days by ExMAC assay relative to untreated control. Type of assay: functional. The arrangement: scale not given: the % may be the effect or the level left.
In the case of `CN(C)C(C)(C)c1ccn2c(-c3ccnc(N)n3)c(-c3ccc(F)cc3)nc2c1`, the Activity turned out to be 100%.

On to `CCC(c1ccn2c(-c3ccnc(N)n3)c(-c3ccc(F)cc3)nc2c1)N(C)C` (stereo not drawn), for which the Activity is reported as 50%.

Another assay relates to Eimeria maxima. The experiment in a line: Anticoccidial activity against Eimeria maxima in chickens assessed as reduction of oocysts at 1 ppm measured after 8 days by ExMAC assay relative to untreated control. Type of assay: functional. The arrangement: scale not given: the % may be the effect or the level left.
`CC(c1ccn2c(-c3ccnc(N)n3)c(-c3ccc(F)cc3)nc2c1)N(C)C` (single isomer, unassigned; enantiomer A): the Activity is listed as 50%.

The next assay has as its system Eimeria mitis. The experiment in a line: Anticoccidial activity against Eimeria mitis in chickens assessed as reduction of oocysts at 4 ppm measured after 8 days by ExMAC assay relative to untreated control. In kind it is functional. The arrangement: scale not given: the % may be the effect or the level left.
`CC(c1ccn2c(-c3ccnc(N)n3)c(-c3ccc(F)cc3)nc2c1)N(C)C` (single isomer, unassigned; enantiomer A): the Activity is less than 50%.

The subject of another assay is Eimeria acervulina. The experiment in a line: Anticoccidial activity against Eimeria acervulina in chickens assessed as reduction of oocysts at 1 ppm measured after 8 days by ExMAC assay relative to untreated control. Type of assay: functional. Further details: scale not given: the % may be the effect or the level left.
As for `CC(c1ccn2c(-c3ccnc(N)n3)c(-c3ccc(F)cc3)nc2c1)N(C)C` (single isomer, unassigned; enantiomer A), the Activity is reported as less than 50%.

The subject of the next assay is Eimeria mitis. The experiment in a line: Anticoccidial activity against Eimeria mitis in chickens assessed as reduction of oocysts at 1 ppm measured after 8 days by ExMAC assay relative to untreated control. Type of assay: functional. The arrangement: scale not given: the % may be the effect or the level left.
As for `CC(c1ccn2c(-c3ccnc(N)n3)c(-c3ccc(F)cc3)nc2c1)N(C)C` (single isomer, unassigned; enantiomer A), the Activity worked out at 50%.

In a further assay the target is cGMP-dependent protein kinase (Eimeria tenella, UniProt Q8MMZ8). The experiment in a line: Inhibition of Eimeria tenella cGMP-dependent protein kinase.
cGMP-dependent protein kinase, sequence (Q8MMZ8 whole entry): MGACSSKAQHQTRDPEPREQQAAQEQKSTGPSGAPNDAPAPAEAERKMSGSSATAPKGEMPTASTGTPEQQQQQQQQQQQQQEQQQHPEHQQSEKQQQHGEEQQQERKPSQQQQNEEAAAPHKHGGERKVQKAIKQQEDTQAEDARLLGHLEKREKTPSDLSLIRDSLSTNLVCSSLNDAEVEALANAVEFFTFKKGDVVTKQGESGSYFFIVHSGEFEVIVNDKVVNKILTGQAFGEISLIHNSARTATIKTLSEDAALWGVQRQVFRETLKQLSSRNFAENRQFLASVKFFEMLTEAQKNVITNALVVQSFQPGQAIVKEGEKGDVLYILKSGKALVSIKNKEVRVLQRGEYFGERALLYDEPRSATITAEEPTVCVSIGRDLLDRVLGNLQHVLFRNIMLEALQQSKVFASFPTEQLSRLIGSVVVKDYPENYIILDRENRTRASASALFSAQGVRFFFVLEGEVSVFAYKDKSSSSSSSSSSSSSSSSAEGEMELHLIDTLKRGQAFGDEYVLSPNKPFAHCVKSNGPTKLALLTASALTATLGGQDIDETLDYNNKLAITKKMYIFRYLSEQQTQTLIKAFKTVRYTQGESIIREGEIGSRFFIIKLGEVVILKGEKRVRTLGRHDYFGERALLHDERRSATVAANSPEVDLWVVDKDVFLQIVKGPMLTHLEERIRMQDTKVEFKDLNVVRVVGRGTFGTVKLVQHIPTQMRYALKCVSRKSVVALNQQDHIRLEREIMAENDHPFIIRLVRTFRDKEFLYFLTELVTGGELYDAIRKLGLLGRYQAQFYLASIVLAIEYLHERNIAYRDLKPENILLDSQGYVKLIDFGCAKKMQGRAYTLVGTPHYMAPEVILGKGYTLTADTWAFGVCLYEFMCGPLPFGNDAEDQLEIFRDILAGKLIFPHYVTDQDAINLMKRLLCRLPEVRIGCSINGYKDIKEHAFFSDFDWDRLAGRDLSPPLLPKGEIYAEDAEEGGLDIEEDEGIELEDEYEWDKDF
`CN(C)C(C)(C)c1ccn2c(-c3ccnc(N)n3)c(-c3ccc(F)cc3)nc2c1` showed an IC50 of 0.11 nM.

`CCC(c1ccn2c(-c3ccnc(N)n3)c(-c3ccc(F)cc3)nc2c1)N(C)C` (stereo not drawn) returned an IC50 of 0.13 nM.

`CC(c1ccn2c(-c3ccnc(N)n3)c(-c3ccc(F)cc3)nc2c1)N(C)C` (single isomer, unassigned; enantiomer A) displayed an IC50 of 0.28 nM.

For the next assay, the system named is Eimeria acervulina. The experiment in a line: Anticoccidial activity against Eimeria acervulina in chickens assessed as reduction of oocysts at 12.5 ppm measured after 8 days by ExMAC assay relative to untreated control. In kind it is functional. The arrangement: scale not given: the % may be the effect or the level left.
For the molecule `CCC(c1ccn2c(-c3ccnc(N)n3)c(-c3ccc(F)cc3)nc2c1)N(C)C` (stereo not drawn), the Activity is listed as 100%.

The test system of another assay is Eimeria mitis. The experiment in a line: Anticoccidial activity against Eimeria mitis in chickens assessed as reduction of oocysts at 2 ppm measured after 8 days by ExMAC assay relative to untreated control. In kind it is functional. The arrangement: scale not given: the % may be the effect or the level left.
With `CC(c1ccn2c(-c3ccnc(N)n3)c(-c3ccc(F)cc3)nc2c1)N(C)C` (single isomer, unassigned; enantiomer A), the Activity was less than 50%.

The next assay relates to Eimeria maxima. The experiment in a line: Anticoccidial activity against Eimeria maxima in chickens assessed as reduction of oocysts at 6.25 ppm measured after 8 days by ExMAC assay relative to untreated control. Type of assay: functional. The arrangement: scale not given: the % may be the effect or the level left.
As to `CN(C)C(C)(C)c1ccn2c(-c3ccnc(N)n3)c(-c3ccc(F)cc3)nc2c1`, the Activity was 80%.

For a further assay, the system named is Eimeria acervulina. The experiment in a line: Anticoccidial activity against Eimeria acervulina in chickens assessed as reduction of oocysts at 2 ppm measured after 8 days by ExMAC assay relative to untreated control. Type of assay: functional. Further details: scale not given: the % may be the effect or the level left.
For `CC(c1ccn2c(-c3ccnc(N)n3)c(-c3ccc(F)cc3)nc2c1)N(C)C` (single isomer, unassigned; enantiomer A), the Activity is given as less than 50%.

The subject of another assay is Eimeria tenella. The experiment in a line: Anticoccidial activity against Eimeria tenella in chickens assessed as reduction of oocysts at 12.5 ppm measured after 8 days by ExMAC assay relative to untreated control. In kind it is functional. Further details: scale not given: the % may be the effect or the level left.
As for `CCC(c1ccn2c(-c3ccnc(N)n3)c(-c3ccc(F)cc3)nc2c1)N(C)C` (stereo not drawn), the Activity is 100%.

In the next assay the test system is Eimeria maxima. The experiment in a line: Anticoccidial activity against Eimeria maxima in chickens assessed as reduction of oocysts at 2 ppm measured after 8 days by ExMAC assay relative to untreated control. In kind it is functional. The arrangement: scale not given: the % may be the effect or the level left.
On to `CC(c1ccn2c(-c3ccnc(N)n3)c(-c3ccc(F)cc3)nc2c1)N(C)C` (single isomer, unassigned; enantiomer A), for which the Activity came to 50%.

A further assay deals with Eimeria tenella. The experiment in a line: Anticoccidial activity against Eimeria tenella in chickens assessed as reduction of oocysts at 2 ppm measured after 8 days by ExMAC assay relative to untreated control. In kind it is functional. Further details: scale not given: the % may be the effect or the level left.
As to `CC(c1ccn2c(-c3ccnc(N)n3)c(-c3ccc(F)cc3)nc2c1)N(C)C` (single isomer, unassigned; enantiomer A), the Activity is less than 50%.

Another assay deals with Eimeria maxima. The experiment in a line: Anticoccidial activity against Eimeria maxima in chickens assessed as reduction of oocysts at 8 ppm measured after 8 days by ExMAC assay relative to untreated control. Type of assay: functional. Further details: scale not given: the % may be the effect or the level left.
As to `CN(C)C(C)(C)c1ccn2c(-c3ccnc(N)n3)c(-c3ccc(F)cc3)nc2c1`, the Activity is 100%.

Turning to `CCC(c1ccn2c(-c3ccnc(N)n3)c(-c3ccc(F)cc3)nc2c1)N(C)C` (stereo not drawn), the Activity was found to be 50%.
